According to US20220389057A1, “ENDOCYTOSIS ROUTING SEQUENCE PEPTIDE FOR CELL DELIVERY SYSTEMS” (SZEGEDI TUDOMÁNYEGYETEM, priority 2019, published 2022):
Where two headings read alike, the source gives them in different places.

Assay: Isothermal titration calorimetry (ITC), binding to ganglioside GM1
Conditions: Table 1, pH 7.2, 35° C.
Protocol: Isothermal calorimetric titrations (ITC) were performed with a MicroCal VP-ITC microcalorimeter in pH 7.2 phosphate buffer solution. In individual titrations, 15 μL GM1:DPC 1:5 containing solution was injected from the computer-controlled […] microsyringe at intervals of 300 s into the ligand solution, dissolved in the same buffer as the GM1. All measurements were carried out at 35° C. The ligands concentration in the cell was 15 μM, and the concentration of GM1 in the syringe was 300 μM. Control experiments were performed by injecting GM1 into the cell containing buffer but no ligands Experiments were repeated twice. The experimental data were fitted to the one binding site or two independent sites model (adjustable parameters: ΔHb1, Kd1, n1 and ΔHb2, Kd2, n2) using a nonlinear least-squares procedure. Errors were calculated by jackknife resampling.
Binding of Trp-Tyr-Lys-Tyr-Trp (WYKYW) and analogues to various ganglioside derivatives was tested as described under “Isothermal Titration calorimetry” to explore the specificity of the interaction between WYKYW and GM1. Affinity data for binding between WYKYW and various ganglioside derivatives (FIG. 1), and for binding between various mutated sequences of WYKYW and GM1 (Table 1) were obtained by Isothermal Titration calorimetry as described in Example 1 (General methods).

[1] = first binding step, read-out: KD1/nM
[2] = second binding step, read-out: KD2/nM

Compound	Kd [1] [nM]	Kd [2] [nM]	KD1/nM (first binding step)
WAKYW [Ala point mutation of WYKYW]	5760	–	–
WYKAW [Ala point mutation of WYKYW]	1690	–	–
WYKYA [Ala point mutation of WYKYW]	1060	–	–
NCCCC[C@@H](NC(=O)[C@H](Cc1ccc(O)cc1)NC(=O)[C@@H](N)Cc1c[nH]c2ccccc12)C(=O)N[C@@H](Cc1ccc(O)cc1)C(=O)N[C@@H](Cc1c[nH]c2ccccc12)C(N)=O [WYkYW]	4520	–	–
NCCCC[C@H](NC(=O)[C@H](Cc1ccc(O)cc1)NC(=O)[C@H](N)Cc1c[nH]c2ccccc12)C(=O)N[C@@H](Cc1ccc(O)cc1)C(=O)N[C@@H](Cc1c[nH]c2ccccc12)C(N)=O [wYKYW]	881	–	–
NCCCC[C@H](NC(=O)[C@H](Cc1ccc(O)cc1)NC(=O)[C@@H](N)Cc1c[nH]c2ccccc12)C(=O)N[C@@H](Cc1ccc(O)cc1)C(=O)N[C@H](Cc1c[nH]c2ccccc12)C(N)=O [WYKYw]	3930	–	–
NCCCC[C@H](NC(=O)[C@@H](Cc1ccc(O)cc1)NC(=O)[C@@H](N)Cc1c[nH]c2ccccc12)C(=O)N[C@@H](Cc1ccc(O)cc1)C(=O)N[C@@H](Cc1c[nH]c2ccccc12)C(N)=O [WyKYW]	892	–	–
Trp-Tyr-Lys-β^3-homo-Tyr-Trp [WYKbYW]	40	1200	–
AYKYW [Ala point mutation of WYKYW]	–	–	not fittable
NCCCC[C@H](NC(=O)[C@H](Cc1ccc(O)cc1)NC(=O)[C@@H](N)Cc1c[nH]c2ccccc12)C(=O)N[C@H](Cc1ccc(O)cc1)C(=O)N[C@@H](Cc1c[nH]c2ccccc12)C(N)=O [WYKyW]	3240	–	–
Trp-β^3-homo-Tyr-Lys-Tyr-Trp [WbYKYW]	60	1000	–
WYAYW [Ala point mutation of WYKYW]	10500	–	–
β^3-homo-Trp-Tyr-Lys-Tyr-Trp [bWYKYW]	4.3	2100	–
